Source: ChEMBL document CHEMBL2021794, “Synthesis, σ₁, σ₂-receptors binding affinity and antiproliferative action of new C1-substituted adamantanes” (Bioorg Med Chem, 2012)
Calls of active or inactive are those of the source. No cut-off for these calls is given here.

Key:
[1] = system: MIA PaCa-2; test: Antitumor activity against human MIAPaCa2 cells xenografted in SCID mouse assessed as tumor weight at 70 mg/kg, ip for 3 consecutive days (reference value: 1225 +/- 308 mg); format: functional; details: route intraperitoneal
[2] = system: IGROV-1; test: Induction of apoptosis in human IGROV1 cells assessed as healthy cells at 0.5 uM after 24 hrs by Annexin V/7-AAD staining based flow cytometry (reference value: 86%); format: functional
[3] = system: BXPC-3; test: Induction of apoptosis in human BxPC3 cells assessed as late apoptotic cells at 0.5 uM after 24 hrs by Annexin V/7-AAD staining based flow cytometry (reference value: 9%); format: functional
[4] = system: PC-3; test: Cell cycle arrest in human PC3 cells assessed as accumulation at >G2 phase at 50 uM after 24 hrs by propidium iodide staining based flow cytometry (reference value: 6%); format: functional
[5] = system: BXPC-3; test: Cell cycle arrest in human BxPC3 cells assessed as accumulation at < G1 phase at 0.5 uM after 24 hrs by propidium iodide staining based flow cytometry (reference value: 9%); format: functional
[6] = system: NCI-H69; test: Growth inhibition of human NCI-H69 cells after 48 hrs by SRB assay; format: functional; details: NCI-H69, 48 h
[7] = system: BXPC-3; test: Cell cycle arrest in human BxPC3 cells assessed as accumulation at >G2 phase at 15 uM after 24 hrs by propidium iodide staining based flow cytometry (reference value: 6%); format: functional
[8] = system: PC-3; test: Cell cycle arrest in human PC3 cells assessed as accumulation at G2 phase at 15 uM after 24 hrs by propidium iodide staining based flow cytometry (reference value: 13%); format: functional
[9] = system: BXPC-3; test: Antitumor activity against human BxPC3 cells xenografted in SCID mouse assessed as tumor weight at 40 mg/kg, ip for 5 consecutive days and 2 administrations for one more week (reference value: 723 +/- 45 mg); format: functional; details: route intraperitoneal
[10] = system: IGROV-1; test: Cell cycle arrest in human IGROV1 cells assessed as accumulation at S phase at 5 uM after 24 hrs by propidium iodide staining based flow cytometry (reference value: 29%); format: functional
[11] = system: DU-145; test: Cytotoxicity against human DU145 cells after 48 hrs by trypan blue assay; format: functional, cell-based
[12] = system: BXPC-3; test: Cell cycle arrest in human BxPC3 cells assessed as accumulation at S phase at 5 uM after 24 hrs by propidium iodide staining based flow cytometry (reference value: 33%); format: functional
[13] = system: IGROV-1; test: Growth inhibition of human IGROV1 cells after 48 hrs by SRB assay; format: functional; details: IGROV-1, 48 h
[14] = system: BXPC-3; test: Induction of apoptosis in human BxPC3 cells assessed as early apoptotic cells at 15 uM after 24 hrs by Annexin V/7-AAD staining based flow cytometry (reference value: 11%); format: functional
[15] = system: OVCAR-5; test: Growth inhibition of human OVCAR5 cells after 48 hrs by SRB assay; format: functional; details: OVCAR-5, 48 h
[16] = system: IGROV-1; test: Cell cycle arrest in human IGROV1 cells assessed as accumulation at >G2 phase at 0.5 uM after 24 hrs by propidium iodide staining based flow cytometry (reference value: 21%); format: functional
[17] = system: BXPC-3; test: Induction of apoptosis in human BxPC3 cells assessed as healthy cells at 15 uM after 24 hrs by Annexin V/7-AAD staining based flow cytometry (reference value: 77%); format: functional
[18] = system: BXPC-3; test: Induction of apoptosis in human BxPC3 cells assessed as cleaved caspase-3 containing cells at 15 uM after 24 hrs by FACS analysis (reference value: 10%); format: functional
[19] = system: BXPC-3; test: Induction of apoptosis in human BxPC3 cells assessed as cleaved caspase-3 containing cells at 5 uM after 24 hrs by FACS analysis (reference value: 10%); format: functional
[20] = system: BXPC-3; test: Cell cycle arrest in human BxPC3 cells assessed as accumulation at G2 phase at 15 uM after 24 hrs by propidium iodide staining based flow cytometry (reference value: 12%); format: functional
[21] = target: Sigma non-opioid intracellular receptor 1 (Homo sapiens, UniProt Q99720); test: Displacement of [3H](+)pentazocine from sigma-1 receptor expressed in human Jurkat cell membranes after 2 hrs by liquid scintillation spectroscopy
[22] = system: OVCAR-5; test: Cytotoxicity against human OVCAR5 cells after 48 hrs by trypan blue assay; format: functional, cell-based
[23] = system: BXPC-3; test: Cell cycle arrest in human BxPC3 cells assessed as accumulation at >G2 phase at 5 uM after 24 hrs by propidium iodide staining based flow cytometry (reference value: 6%); format: functional
[24] = system: PC-3; test: Induction of apoptosis in human PC3 cells assessed as late apoptotic cells at 0.5 uM after 24 hrs by Annexin V/7-AAD staining based flow cytometry (reference value: 2%); format: functional
[25] = system: PC-3; test: Induction of apoptosis in human PC3 cells assessed as early apoptotic cells at 5 uM after 24 hrs by Annexin V/7-AAD staining based flow cytometry (reference value: 5%); format: functional
[26] = system: Mus musculus; test: Toxicity in SCID mouse assessed as weight loss at 40 mg/kg, ip after 3 to 4 weeks chronic treatment; format: organism-based; design: dose 40 mg/kg, route intraperitoneal; details: in vivo
[27] = system: IGROV-1; test: Cell cycle arrest in human IGROV1 cells assessed as accumulation at < G1 phase at 15 uM after 24 hrs by propidium iodide staining based flow cytometry (reference value: 4%); format: functional
[28] = system: BXPC-3; test: Cell cycle arrest in human BxPC3 cells assessed as accumulation at S phase at 15 uM after 24 hrs by propidium iodide staining based flow cytometry (reference value: 33%); format: functional
[29] = system: IGROV-1; test: Cell cycle arrest in human IGROV1 cells assessed as accumulation at G1 phase at 5 uM after 24 hrs by propidium iodide staining based flow cytometry (reference value: 27%); format: functional
[30] = system: BXPC-3; test: Cell cycle arrest in human BxPC3 cells assessed as accumulation at G1 phase at 0.5 uM after 24 hrs by propidium iodide staining based flow cytometry (reference value: 41%); format: functional
[31] = system: IGROV-1; test: Cell cycle arrest in human IGROV1 cells assessed as accumulation at S phase at 15 uM after 24 hrs by propidium iodide staining based flow cytometry (reference value: 29%); format: functional
[32] = system: IGROV-1; test: Induction of apoptosis in human IGROV1 cells assessed as total apoptotic death cells at 0.5 uM after 24 hrs by Annexin V/7-AAD staining based flow cytometry (reference value: 13%); format: functional
[33] = system: H69AR; test: Growth inhibition of human H69AR cells after 48 hrs by SRB assay; format: functional
[34] = system: BXPC-3; test: Cell cycle arrest in human BxPC3 cells assessed as accumulation at G1 phase at 50 uM after 24 hrs by propidium iodide staining based flow cytometry (reference value: 41%); format: functional
[35] = system: PC-3; test: Cytotoxicity against human PC3 cells after 48 hrs by trypan blue assay; format: functional, cell-based
[36] = system: IGROV-1; test: Induction of apoptosis in human IGROV1 cells assessed as total apoptotic death cells at 15 uM after 24 hrs by Annexin V/7-AAD staining based flow cytometry (reference value: 13%); format: functional
[37] = system: HCT-15; test: Cytotoxicity against human HCT15 cells after 48 hrs by trypan blue assay; format: functional, cell-based
[38] = system: PC-3; test: Cell cycle arrest in human PC3 cells assessed as accumulation at G1 phase at 50 uM after 24 hrs by propidium iodide staining based flow cytometry (reference value: 36%); format: functional
[39] = read-out: LC50 (the source's name)

Sigma non-opioid intracellular receptor 1, sequence (Q99720 whole entry): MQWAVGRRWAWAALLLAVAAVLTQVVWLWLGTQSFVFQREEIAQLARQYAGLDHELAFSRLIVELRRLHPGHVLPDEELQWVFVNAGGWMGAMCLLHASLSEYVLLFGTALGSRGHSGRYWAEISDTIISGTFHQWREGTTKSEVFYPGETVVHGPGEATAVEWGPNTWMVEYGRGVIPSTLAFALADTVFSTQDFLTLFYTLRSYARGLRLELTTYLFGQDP

SMILES: CN1CCN(c2ccc(C(c3ccccc3)C34CC5CC(CC(C5)C3)C4)cc2)CC1 (stereo not given)
- Activity [1]: 642 mg
- Activity [2]: 89%
- Activity [3]: 6%
- Activity [4]: 11%
- Activity [5]: 11%
- GI50 [6]: 7.09 µM
- CC50 [6, 39]: 100 µM
- Activity [7]: 5%
- Activity [8]: 9%
- Activity [9]: 690 mg
- Activity [10]: 29%
- Activity [11]: Active
- Activity [12]: 30%
- GI50 [13]: 8.83 µM
- TGI [13]: 58.5 µM
- CC50 [13, 39]: 100 µM
- Activity [14]: 12%
- GI50 [15]: 8 µM
- TGI [15]: 41.9 µM
- CC50 [15, 39]: 94.5 µM
- Activity [16]: 20%
- Activity [17]: 60%
- Activity [18]: 11%
- Activity [19]: 5%
- Activity [20]: 16%
- IC50 [21]: 0.0032 µM
- Activity [22]: Active
- Activity [23]: 8%
- Activity [24]: 1%
- Activity [25]: 5%
- Activity [26]: Non-toxic
- Activity [27]: 11%
- Activity [28]: 19%
- Activity [29]: 25%
- Activity [30]: 37%
- Activity [31]: 27%
- Activity [32]: 10%
- GI50 [33]: 6.04 µM
- TGI [33]: 18.4 µM
- CC50 [33, 39]: 90.5 µM
- Activity [34]: 33%
- Activity [35]: Active
- Activity [36]: 33%
- Activity [37]: Active
- Activity [38]: 35%
